Laboratory results from ChEMBL document CHEMBL3817841, “Biological evaluation of quinoline derivatives as inhibitors of human dihydroorotate dehydrogenase” (Medchemcomm, 2016).
pIC50, pKd: −log10 of the molar value.

Experiments:
[1] = molecular target: T1, Dihydroorotate dehydrogenase (quinone), mitochondrial (Homo sapiens, UniProt Q02127); assay: Inhibition of N-terminally truncated human DHODH (Met30 to Arg396 residues) expressed in Escherichia coli BL21 (DE3) using dihydroorotate as substrate preincubated for 5 mins followed by substrate addition measured every 30 secs for 6 mins by DCIP-based spectrophotometric assay
T1 sequence (Q02127 whole entry, the tested form may be a part): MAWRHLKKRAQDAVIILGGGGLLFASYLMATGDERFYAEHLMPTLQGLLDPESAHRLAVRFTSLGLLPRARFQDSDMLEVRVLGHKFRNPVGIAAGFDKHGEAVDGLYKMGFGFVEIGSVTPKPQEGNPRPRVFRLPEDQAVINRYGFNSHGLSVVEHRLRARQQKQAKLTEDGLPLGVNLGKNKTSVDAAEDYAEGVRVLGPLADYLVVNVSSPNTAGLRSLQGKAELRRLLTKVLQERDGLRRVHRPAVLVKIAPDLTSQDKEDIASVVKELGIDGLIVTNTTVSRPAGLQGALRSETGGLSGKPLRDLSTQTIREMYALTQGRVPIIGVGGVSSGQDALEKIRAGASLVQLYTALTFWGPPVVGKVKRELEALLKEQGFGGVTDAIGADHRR

[2] = molecular target: T1, Dihydroorotate dehydrogenase (quinone), mitochondrial; assay: Binding affinity to N-terminally truncated human DHODH (Met30 to Arg396 residues) expressed in Escherichia coli BL21 (DE3) assessed as dissociation rate constant by surface plasmon resonance assay
[3] = molecular target: T1, Dihydroorotate dehydrogenase (quinone), mitochondrial; assay: Binding affinity to N-terminally truncated human DHODH (Met30 to Arg396 residues) expressed in Escherichia coli BL21 (DE3) by surface plasmon resonance assay
[4] = molecular target: T1, Dihydroorotate dehydrogenase (quinone), mitochondrial
Description: Binding affinity to N-terminally truncated human DHODH (Met30 to Arg396 residues) expressed in Escherichia coli BL21 (DE3) assessed as change in melting temperature at 100 uM by fluorescence-based thermal shift assay

[5] = molecular target: T1, Dihydroorotate dehydrogenase (quinone), mitochondrial; remark: listed apart in the source
Description: Binding affinity to N-terminally truncated human DHODH (Met30 to Arg396 residues) expressed in Escherichia coli BL21 (DE3) assessed as association rate constant by surface plasmon resonance assay

Structure (SMILES) | pIC50 [1] | further results
CCC(C)c1ccc(-c2nc3ccc(Br)cc3c(C(=O)O)c2C)cc1 (stereo not drawn) | 8.01 | koff [2]: 7.58 ×10⁻³ /s; pKd [3]: 7.92; ΔTm [4]: 16.6 °C; Ka [5]: 5.99 ×10⁵ /M/s
CCCCc1ccc(-c2cc(C(=O)O)c3ccccc3n2)cc1 | 6.36 | 
O=C(O)c1cc(-c2ccc3c(c2)OCO3)nc2ccccc12 | 5.29 | 
COC(=O)c1cc(-c2ccc(OC)c(OC)c2)nc2ccccc12 | 5.49 | 
O=C(O)c1cc(-c2ccc(Cl)c(Cl)c2)nc2ccc(Br)cc12 | 7.24 | 
Cc1c(-c2ccc(C(C)C)cc2)nc2ccccc2c1C(=O)O | 5.81 | 
O=C(O)c1cc(-c2ccc(Cl)cc2Cl)nc2ccc(Br)cc12 | 6.18 | 
CCCCOc1cccc(-c2cc(C(=O)O)c3ccccc3n2)c1 | 5.88 | 
CC(C)c1ccc(-c2cc(C(=O)O)c3cc(Br)ccc3n2)cc1 | 6.87 | 
